Measured values from patent US20130143969A1 (THE OHIO STATE UNIVERSITY, priority 2010, published 2013).

Tests used:
in vivo = conditions: for concentration at 10 min / concentration at 20 min / concentration at 30 min / concentration at 45 min / concentration at 60 min / concentration at 90 min / concentration at 120 min / concentration at 240 min / concentration at 480 min: CD2F1, mouse, in vivo; for AUC as % curcumin (relative percentage): oral 1.8 g/kg curcumin gel; for AUC: oral 1.8 g/kg curcumin gel in 66.7% PEG 600 + 33.3% Cremophor EL
Text: Extracts of bio-matrices were subjected to HPLC mass spectrometric analysis.

p15^INK4B = assay: Quantitative RT-PCR of p15INK4B mRNA in leukemia cells; assay type: cell-based; conditions: MV4-11 cells, decitabine 2.5 μM, 72 hours
Method: (§1) Cell Cycle and Apoptosis Analysis: MV4-11, ML-1, HL-60 and K562 leukemia cell lines were cultured in RPMI medium (VWR International, Inc., West Chester, Pa.) supplemented with 10% fetal bovine serum (Invitrogen, Carlsbad, Calif.) and 1% (v/v) penicillin/streptomycin (Invitrogen Life Technologies; Carlsbad, Calif.) antibiotic solution at 37° C. in an incubator under 5% CO2 atmosphere. For the ex-vivo studies, mononuclear cells obtained from bone marrow (BM) of patient with AML were prepared by Ficoll-Hypaque (Nygaard) gradient centrifugation and cultured with serum-free expansion medium (SFEM) (StemCell technologies, Vancouver, BC) supplemented with GM-CSF (50 ng/ml), IL-3 (20 ng/ml), IL-6 (20 ng/ml) and SCF ([…]). […] The cell cycle and apoptosis of MV4-11 cells was analyzed on a BD FACS Calibur (Beckman Coulter, Fullerton, Calif.) according to the standard protocol provided by the manufacturer.
Quantitative RT-PCR was used to quantify the mRNA levels of DNMT1, DNMT3a, DNMT3b, p15INK4B and p21. Total RNA was extracted with Trizol reagent (Invitrogen, Carlsbad, Calif.) and reverse transcribed by reverse transcriptase (Invitrogen). Quantitative real-time PCR reactions were performed in triplicate using Taqman gene expression assay (Applied Biosystems) with an ABI prism 7700 detector (Applied Biosystems). The target gene values were normalized to the values of internal control GAPDH or 18 S, and expressed as relative percent change (100×2^(˜ΔΔCt)) over non-treated samples.

[1] = system: p15^INK4B promoter region; assay: DNA methylation analysis of the p15INK4B promoter region (LC-MS/MS); assay type: cell-based; conditions: MV4-11 cells, decitabine 2.5 μM, 72 hours
Method: Genomic DNA isolated from MV4-11 cells was treated with bisulfite using the Epi methylation Kit (Qiagen, Minneapolis, Minn.) according to the instruction from the manufacturer and followed by PCR amplification as follows. The sequences of p15^INK4B primers were: forward 5′-GGGAGGGTAATGAAGTTGAGTTTA-3′ (SEQ ID NO. 1), and reverse 5′-ACCCTAAAACCCCAACTACCTAAAT-3′ (SEQ ID NO. 2). PCR amplifications were performed as follows: 95° C. for 5.5 min, 55° C. for 30s for 5 cycles, and 52° C. for 30 s for 38 cycles, 72° C. for 30s for 38 cycles, with a final step at 72° C. for 1 min. PCRs were carried out in a 100 μl volume containing 10 μl of buffer (10×), 2 μL of each primer (10 μM), 2 μL of (10 mM) dNTPs, 2 U of Platinum Taq DNA polymerase (Invitrogen, Carlsbad, Calif.), 70.6 μL ddH2O and 10 μL of bisulfite treated DNA in a GeneAmp 9700 thermal cycler (Perkin-Elmer, Norwalk, Conn.). PCR products were purified using QIAquick columns and eluted in water. A 500 ng aliquot of the PCR product was incubated with 25 UM. […] Fully methylated PCR products were purified using the QIAquick PCR Purification kit (Qiagen, Minneapolis, Minn.), according to the manufacturer's instructions and 200 ng of the purified DNA was hydrolyzed and the concentrations of 5mdC and 2dC in the hydrolysate were measured by LC-MS/MS using the conditions as described previously.

MV4-11 cells = assay: Cell cycle distribution by flow cytometry; assay type: cell-based; conditions: 2.5 μM decitabine
Method: as §1

[2] = mouse, oral 1.8 g/kg curcumin in 66.7% PEG 600 + 33.3% Cremophor EL, 1440 min

Compound | concentration at 10 min (in vivo) | concentration at 20 min (in vivo) | concentration at 30 min (in vivo) | concentration at 45 min (in vivo) | concentration at 60 min (in vivo) | concentration at 90 min (in vivo) | concentration at 120 min (in vivo) | concentration at 240 min (in vivo) | concentration at 480 min (in vivo) | AUC as % curcumin (relative percentage) (in vivo; mouse) | AUC (in vivo; mouse) | plasma level (in vivo; [2]) | plasma level (in vivo; same dosing, 10 min) | plasma level (in vivo; same dosing, 20 min) | plasma level (in vivo; same dosing, 30 min) | plasma level (in vivo; same dosing, 45 min) | plasma level (in vivo; same dosing, 60 min) | plasma level (in vivo; same dosing, 90 min) | plasma level (in vivo; same dosing, 120 min) | plasma level (in vivo; same dosing, 480 min) | further results
O=C(/C=C/c1ccc(O)cc1)CC(=O)/C=C/c1ccc(O)cc1 [BDMO, bisdesmethoxycurcumin] | 0.0657 µg/mL | 0.115 µg/mL | 0.0514 µg/mL | 0.0669 µg/mL | 0.0373 µg/mL | 0.0111 µg/mL | 0.0154 µg/mL | 0.0345 µg/mL | 0.0109 µg/mL | – | – | – | – | – | – | – | – | – | – | – | –
COc1cc(/C=C/C(O)=C/C(=O)/C=C/c2ccc(O)cc2)ccc1O [DMO, desmethoxycurcumin] | 0.148 µg/mL | 0.224 µg/mL | 0.108 µg/mL | 0.118 µg/mL | 0.0765 µg/mL | 0.0291 µg/mL | 0.0395 µg/mL | 0.0404 µg/mL | 0.0154 µg/mL | – | – | – | – | – | – | – | – | – | – | – | –
COc1cc(/C=C/C(=O)CC(=O)/C=C/c2ccc(O[C@@H]3O[C@H](C(=O)O)[C@@H](O)[C@H](O)[C@H]3O)c(OC)c2)ccc1O [GLU, curcumin O-monoglucuronide] | – | – | – | – | – | – | – | – | – | 382.0% | 1863.2 µM·min | 0.0242129 µg/mL | 3.083366 µg/mL | 4.42871 µg/mL | 5.469386 µg/mL | 2.539161 µg/mL | 2.057704 µg/mL | 1.336072 µg/mL | 1.07025 µg/mL | 0.7165084 µg/mL | –
COc1cc(CCC(=O)CC(=O)CCc2ccc(O)c(OC)c2)ccc1O [THC, tetrahydrocurcumin] | – | – | – | – | – | – | – | – | – | 7.9% | 38.29 µM·min | 0.002239 µg/mL | 0.1126977 µg/mL | 0.2382446 µg/mL | 0.2190996 µg/mL | 0.0625 µg/mL | 0.03923 µg/mL | 0.006038 µg/mL | 0.008631 µg/mL | 0.004672 µg/mL | plasma level (in vivo; same dosing, 240 min): 0.008173 µg/mL
Nc1ncn([C@H]2C[C@H](O)[C@@H](CO)O2)c(=O)n1 [decitabine, Decitabine] | – | – | – | – | – | – | – | – | – | – | – | – | – | – | – | – | – | – | – | – | increase of p15INK4B expression level (p15^INK4B): ~4 fold; decrease of p15INK4B promoter methylation level [1]: ~25%; cell population in G0/G1 phase (MV4-11 cells): 49.4%; cell population in G2/M phase (MV4-11 cells): 11.7%; cell population in S phase (MV4-11 cells): 26.2%; cell population in SubG1 phase (MV4-11 cells): 13.2%
curcumin O-sulfate | – | – | – | – | – | – | – | – | – | 3.3% | 16.2 µM·min | 0 µg/mL | 0.02944 µg/mL | 0.05483 µg/mL | 0.04306 µg/mL | 0.02751 µg/mL | 0.01875 µg/mL | 0.008637 µg/mL | 0.007752 µg/mL | 0.00405 µg/mL | plasma level (in vivo; same dosing, 240 min): 0.009949 µg/mL
